Assay results reported in ChEMBL document CHEMBL4725394 (J Med Chem, 2020).
The source made the active and inactive calls. The rule behind the calls is not given here.

Columns and labels:
[1] = target: T1, Free fatty acid receptor 1 (Homo sapiens, UniProt O14842); experiment: Binding affinity to human GPR40 expressed in CHO cells by LC-MS analysis; format: cell-based
[2] = target: T1, Free fatty acid receptor 1; experiment: Agonist activity at human GPR40 expressed in CHO cells incubated for 60 mins by FLIPR based Ca2+ mobilization assay; format: functional, cell-based
[3] = target: T1, Free fatty acid receptor 1; experiment: Agonist activity at human GPR40 expressed in CHO cells incubated for 60 mins by FLIPR based Ca2+ mobilization assay relative to gamma-linolenic acid; format: functional, cell-based; details: filed as agonist
[4] = Cytotoxicity in human HepG2 cells assessed as intracellular ATP content level at 30 uM by ATPlite-M assay relative to control; format: cell-based; details: time 1 day, read-out: Activity
[5] = system: HepG2; experiment: Cytotoxicity in human HepG2 cells assessed as caspase-3/7 activity level at 30 uM by Caspase-GloTM 3/7 assay relative to staurosporine; format: cell-based; details: hepg2, 24 h, time 1 day
[6] = system: Rattus norvegicus; experiment: Stimulation of insulin secretion in Wistar Kyoto N-STZ-1.5 rat model of streptozotocin-induced diabetes at 10 mg/kg, po followed by glucose challenge by ELISA; format: functional, organism-based
[7] = system: Rattus norvegicus; experiment: Suppression of glucose tolerance in Wistar Kyoto N-STZ-1.5 rat model of streptozotocin-induced diabetes at 10 mg/kg, po followed by glucose challenge; format: functional, organism-based
[8] = Cmax in diabetic patient at 50 mg, po; format: ADME; set-up: dose 50 mg, route oral; details: human, in vivo
[9] = AUC (0 to 24 hrs) in diabetic patient at 50 mg, po; format: ADME; set-up: dose 50 mg, time < 24 hr, route oral; details: human, in vivo
[10] = Cmax in Wistar Kyoto N-STZ-1.5 rat model of streptozotocin-induced diabetes at 0.1 to 1 mg/kg, po followed by glucose challenge during 2-week-dosing study; format: ADME, organism-based; set-up: time 2 weeks, dose 0.1-1; details: in vivo
[11] = AUC (0 to 24 hrs) in Wistar Kyoto N-STZ-1.5 rat model of streptozotocin-induced diabetes at 0.1 to 1 mg/kg, po followed by glucose challenge during 2-week-dosing study; format: ADME, organism-based; set-up: time 2 weeks, dose 0.1-1; details: in vivo
[12] = target: T1, Free fatty acid receptor 1; experiment: Agonist activity at human GPR40 expressed in CHO cells at 10 uM incubated for 60 mins by FLIPR based Ca2+ mobilization assay relative to gamma-linolenic acid; format: functional, cell-based
[13] = MRT in Sprague-Dawley rat at 1 mg/kg, po by high-performance LC-tandem MS analysis; format: ADME, organism-based; details: in vivo
[14] = MRT in ICR mouse at 1 mg/kg, po by high-performance LC-tandem MS analysis; format: ADME, organism-based; details: in vivo
[15] = system: Rattus norvegicus; experiment: Suppression of glucose tolerance in Wistar Kyoto N-STZ-1.5 rat model of streptozotocin-induced diabetes at 0.1 to 1 mg/kg, po followed by glucose challenge; format: functional, organism-based; details: dose mg/kg 0.1-1
[16] = target: Voltage-gated inwardly rectifying potassium channel KCNH2 (Homo sapiens, UniProt Q12809); experiment: Inhibition of human ERG
[17] = AUC (0 to 8 hrs ) in ICR mouse at 1 mg/kg, po by high-performance LC-tandem MS analysis; format: ADME, organism-based; set-up: time < 8 hr, route oral, dose 1 mg/kg; details: in vivo
[18] = Total clearance in ICR mouse at 0.1 mg/kg, iv by high-performance LC-tandem MS analysis; format: ADME, organism-based; details: in vivo
[19] = AUC (0 to 8 hrs) in Sprague-Dawley rat at 1 mg/kg, po by high-performance LC-tandem MS analysis; format: ADME, organism-based; set-up: time < 8 hr, route oral, dose 1 mg/kg; details: in vivo
[20] = Oral bioavailability in Sprague-Dawley rat at 1 mg/kg by high-performance LC-tandem MS analysis; format: ADME, organism-based; details: in vivo
[21] = Cmax in Sprague-Dawley rat at 1 mg/kg, po by high-performance LC-tandem MS analysis; format: ADME, organism-based; set-up: route oral, dose 1 mg/kg; details: in vivo
[22] = Volume of distribution at steady state in Sprague-Dawley rat at 0.1 mg/kg, iv by high-performance LC-tandem MS analysis; format: ADME, organism-based; details: in vivo, read-out: Vdss
[23] = Total clearance in Sprague-Dawley rat at 0.1 mg/kg, iv by high-performance LC-tandem MS analysis; format: ADME, organism-based; details: in vivo
[24] = Cmax in ICR mouse at 1 mg/kg, po by high-performance LC-tandem MS analysis; format: ADME, organism-based; set-up: route oral, dose 1 mg/kg; details: in vivo
[25] = Volume of distribution at steady state in ICR mouse at 0.1 mg/kg, iv by high-performance LC-tandem MS analysis; format: ADME, organism-based; details: in vivo, read-out: Vdss
[26] = system: Rattus norvegicus; experiment: Stimulation of insulin secretion in Wistar Kyoto N-STZ-1.5 rat model of streptozotocin-induced diabetes at 0.1 to 1 mg/kg, po followed by glucose challenge by ELISA; format: functional, organism-based; details: dose mg/kg 0.1-1
[27] = Oral bioavailability in ICR mouse at 1 mg/kg by high-performance LC-tandem MS analysis; format: ADME, organism-based; details: in vivo
[28] = system: Rattus norvegicus; experiment: Suppression of body weight in Wistar Kyoto N-STZ-1.5 rat model of streptozotocin-induced diabetes at 0.1 to 1 mg/kg, po followed by glucose challenge during 2-week-dosing study; format: functional, organism-based; details: dose mg/kg 0.1-1, time 2.0 weeks
[29] = system: Rattus norvegicus; experiment: Stimulation of GLP1 release in Wistar Kyoto N-STZ-1.5 rat model of streptozotocin-induced diabetes at 0.1 to 1 mg/kg, po followed by glucose challenge by ELISA; format: functional, organism-based; details: dose mg/kg 0.1-1
[30] = target: T1, Free fatty acid receptor 1; experiment: Binding affinity to human GPR40 expressed in CHO cells in presence of 10 and 100 nM […] by LC-MS analysis based competitive binding assay; format: cell-based; details: filed as agonist, dose nM 10-100
[31] = target: T1, Free fatty acid receptor 1; experiment: Binding affinity to human GPR40 expressed in CHO cells assessed as formation of protein-ternary complex by LC-MS analysis; format: cell-based; details: filed as agonist
[32] = target: T1, Free fatty acid receptor 1; experiment: Agonist activity at human GPR40 expressed in CHO cells at 1 uM incubated for 60 mins by FLIPR based Ca2+ mobilization assay relative to gamma-linolenic acid; format: functional, cell-based

T1 sequence (O14842 whole entry): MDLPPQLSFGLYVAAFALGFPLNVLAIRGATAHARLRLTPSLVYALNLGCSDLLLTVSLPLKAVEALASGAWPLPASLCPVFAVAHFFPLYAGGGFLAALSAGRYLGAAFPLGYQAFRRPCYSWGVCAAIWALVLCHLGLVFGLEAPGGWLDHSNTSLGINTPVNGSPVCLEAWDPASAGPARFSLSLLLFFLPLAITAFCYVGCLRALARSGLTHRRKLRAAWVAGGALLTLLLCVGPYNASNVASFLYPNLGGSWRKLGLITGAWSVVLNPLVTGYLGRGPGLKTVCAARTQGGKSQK
Sequence of Voltage-gated inwardly rectifying potassium channel KCNH2 (Q12809 whole entry): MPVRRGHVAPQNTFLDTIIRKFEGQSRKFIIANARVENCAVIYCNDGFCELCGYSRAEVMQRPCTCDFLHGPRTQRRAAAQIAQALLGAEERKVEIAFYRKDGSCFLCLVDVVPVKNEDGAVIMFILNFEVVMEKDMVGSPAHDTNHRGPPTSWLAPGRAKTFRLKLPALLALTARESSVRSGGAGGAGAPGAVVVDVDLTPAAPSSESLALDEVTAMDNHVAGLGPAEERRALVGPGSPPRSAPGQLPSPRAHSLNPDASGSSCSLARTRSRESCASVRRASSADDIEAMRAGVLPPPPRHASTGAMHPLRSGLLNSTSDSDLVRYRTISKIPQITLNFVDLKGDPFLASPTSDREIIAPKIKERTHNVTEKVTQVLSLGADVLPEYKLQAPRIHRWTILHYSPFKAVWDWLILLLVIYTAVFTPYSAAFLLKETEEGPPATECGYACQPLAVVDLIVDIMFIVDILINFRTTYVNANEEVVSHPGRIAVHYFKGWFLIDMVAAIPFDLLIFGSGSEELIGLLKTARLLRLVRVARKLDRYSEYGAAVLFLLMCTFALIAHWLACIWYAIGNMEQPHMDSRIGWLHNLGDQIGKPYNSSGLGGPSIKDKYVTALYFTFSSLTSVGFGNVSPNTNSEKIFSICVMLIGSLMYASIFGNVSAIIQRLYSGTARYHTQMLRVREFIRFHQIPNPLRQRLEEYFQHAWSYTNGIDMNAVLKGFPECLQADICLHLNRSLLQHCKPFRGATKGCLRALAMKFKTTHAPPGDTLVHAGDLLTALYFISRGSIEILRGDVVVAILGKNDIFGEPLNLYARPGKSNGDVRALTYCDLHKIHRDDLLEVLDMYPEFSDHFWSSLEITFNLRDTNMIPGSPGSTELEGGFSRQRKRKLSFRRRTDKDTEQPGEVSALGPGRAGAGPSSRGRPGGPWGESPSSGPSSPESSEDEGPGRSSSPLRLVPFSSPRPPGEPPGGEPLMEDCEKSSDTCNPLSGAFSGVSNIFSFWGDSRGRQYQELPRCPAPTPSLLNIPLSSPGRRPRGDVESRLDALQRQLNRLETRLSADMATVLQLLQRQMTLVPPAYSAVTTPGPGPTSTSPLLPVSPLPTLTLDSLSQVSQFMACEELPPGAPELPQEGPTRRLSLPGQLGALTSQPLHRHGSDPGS

SMILES	EC50 [2]	Emax [3]	viability at 24 h, 30 µM [4]	Activity [5]	also measured
COc1ccc(F)c(-c2ccc(COc3cccc([C@@H](CC(=O)O)C4CC4)c3)cc2C2=CCCC2(C)C)c1	150 nM	182%			Kd [1]: 5 nM
COc1ccc(C(=O)N(CC(C)(C)C)c2cccc(C)n2)c(N2CCC(COc3cc([C@H](CC(=O)O)C4CC4)ccn3)CC2)c1	83 nM	109%			
COc1ccc(CCC(C)(C)O)c(N2CCC(COc3cccc(C(CC(=O)O)C4CC4)c3)CC2)c1 (stereo unspecified)	970 nM	109%	76.6%	0.1%	
COCC(CC(=O)O)c1cccc(OCC2CCN(c3cc(OC)ccc3C(=O)N(CC(C)(C)C)c3cccc(C)n3)CC2)c1 (stereo unspecified)	120 nM	104%			
N[C@@H](CC(=O)N1CCn2c(nnc2C(F)(F)F)C1)Cc1cc(F)c(F)cc1F					Activity [6]: Active; Activity [7]: Active
Cc1cc(OCCCS(C)(=O)=O)cc(C)c1-c1cccc(COc2ccc3c(c2)OC[C@H]3CC(=O)O)c1					Cmax [8]: 5300 ng/mL; AUC(0-t) at 24 h [9]: 100000 ng·h/mL; Cmax [10]: 39.8 ng/mL; AUC(0-t) at 336 h [11]: 255 ng·h/mL
COc1ccc(F)c(-c2ccc(COc3cccc([C@@H](CC(=O)O)C4CC4)c3)nc2CC(C)(C)C)c1	150 nM	66%			
COc1ccc(CCCC(C)(C)C)c(N2CCC(Oc3cccc(C(CC(=O)O)C4CC4)c3)CC2)c1 (stereo unspecified)					Activity [12]: 22%
COc1ccc(C(C)C)c(N2CCC(COc3cccc(C(CC(=O)O)C4CC4)c3)CC2)c1 (stereo unspecified)	120 nM	117%	0.1%	43.4%	
COc1ccc(C(=O)N(CC(C)(C)OC)c2ccccn2)c(N2CCC(COc3cccc(C(CC(=O)O)C4CC4)c3)CC2)c1 (stereo unspecified)	100 nM	105%			
COc1ccc(C(=O)N(C)c2ccccn2)c(N2CCC(COc3cccc(C(CC(=O)O)C4CC4)c3)CC2)c1 (stereo unspecified)	180 nM	105%	83.6%	-1.1%	
CCOC(CC(=O)O)c1cccc(OCC2CCN(c3cc(OC)ccc3C(=O)N(CC(C)(C)C)c3cccc(C)n3)CC2)c1 (stereo unspecified)	74 nM	104%			
COc1ccc(C)c(N2CCC(COc3cccc(C(CC(=O)O)C4CC4)c3)CC2)c1 (stereo unspecified)	270 nM	113%	67.4%	8.3%	
COc1ccc(C(=O)N(CC(C)(C)C#N)c2ccccn2)c(N2CCC(COc3cccc(C(CC(=O)O)C4CC4)c3)CC2)c1 (stereo unspecified)	160 nM	108%			
COc1ccc(CCCC(C)(C)C)c(-c2ccc(COc3cccc(C(CC(=O)O)C4CC4)c3)cc2)c1 (stereo unspecified)	410 nM	105%			
COc1ccc(C(=O)N(CC(C)(C)C)c2cccc(C)n2)c(N2CCC(COc3cccc(C(CC(=O)O)C4CC4)n3)CC2)c1 (stereo unspecified)					Activity [12]: 39%

SMILES	EC50 [2]	Emax [3]	viability at 24 h, 30 µM [4]	Activity [5]	also measured
COc1ccc(CCC(C)(C)C)c(N2CCC(COc3cccc(C(CC(=O)O)C4CC4)c3)CC2)c1 (stereo unspecified)	34 nM	110%	0.1%	67.3%	
COc1ccc(C(=O)N(CC(C)(C)C)c2cccc(C)n2)c(N2CCC(COc3cccc(C(CC(=O)O)OC)c3)CC2)c1 (stereo unspecified)	62 nM	109%			
COc1ccc(F)c(N2CCC(COc3cccc(C(CC(=O)O)C4CC4)c3)CC2)c1 (stereo unspecified)	670 nM	114%	72.7%	-1.7%	
COc1ccc(CN(C)CC(C)C)c(N2CCC(COc3cccc(C(CC(=O)O)C4CC4)c3)CC2)c1 (stereo unspecified)	1000 nM	110%	80.7%	-1.1%	
COc1ccc(C(=O)N(C)c2ccccc2)c(N2CCC(COc3cccc(C(CC(=O)O)C4CC4)c3)CC2)c1 (stereo unspecified)	140 nM	101%	79.3%	2.8%	
COc1ccc(C(=O)N(CC(C)(C)C)c2cccc(C)n2)c(N2CCC(COc3cc(C(CC(=O)O)C4CC4)ccn3)CC2)c1 (stereo unspecified)	17 nM	112%			
COc1ccc(C(=O)N(CC(C)C)c2ccccn2)c(N2CCC(COc3cccc(C(CC(=O)O)C4CC4)c3)CC2)c1 (stereo unspecified)	29 nM	107%			
COc1ccc(C(=O)N(CC(C)(C)C)c2cccc(C)n2)c(N2CCC(COc3cc([C@@H](CC(=O)O)C4CC4)ccn3)CC2)c1	12 nM	108%	92.1%		MRT [13]: 4.1 h; MRT [14]: 2.3 h; Activity [15]: Active; IC50 [16]: > 10000 nM; AUC(0-t) at 8 h [17]: 98.7 ng·h/mL; clearance [18]: 43.1 mL/min/kg; AUC(0-t) at 8 h [19]: 127 ng·h/mL; bioavailability [20]: 16%; Cmax [21]: 19.9 ng/mL; Vd [22]: 3.09 L/kg; clearance [23]: 24.6 mL/min/kg; Cmax [24]: 33.2 ng/mL; Vd [25]: 1.35 L/kg; Activity [26]: Active; bioavailability [27]: 26%; Cmax [10]: 139 ng/mL; Activity [28]: Active; Activity [29]: Active; AUC(0-t) at 336 h [11]: 626 ng·h/mL
COc1ccc(C(=O)N(CC(C)(C)C)c2cccc(C)n2)c(N2CCC(COc3cccc(C4(CC(=O)O)COC4)c3)CC2)c1	840 nM	115%			
COc1ccc(CCCC(C)(C)C)c(N2CCC(COc3cccc(C(CC(=O)O)C4CC4)c3)CC2)c1 (stereo unspecified)	11 nM	106%	0.1%	26%	Activity [30]: Active; Activity [31]: Active
COc1ccc(C(=O)N(CC(C)(C)C)c2cccc(C)n2)c(N2CCC(COc3cccc(C(CC(=O)O)C4CC4)c3)CC2)c1 (stereo unspecified)	17 nM	109%			
COc1ccc(C(=O)N(CC(C)(C)C)c2ccccn2)c(N2CCC(COc3cccc(C(CC(=O)O)C4CC4)c3)CC2)c1 (stereo unspecified)	26 nM	110%			
COc1ccc(C(=O)N(C)CC(C)(C)C)c(N2CCC(COc3cccc(C(CC(=O)O)C4CC4)c3)CC2)c1 (stereo unspecified)	100 nM	107%	82.2%	6.6%	
COc1cccc(N2CCC(COc3cccc(C(CC(=O)O)C4CC4)c3)CC2)c1 (stereo unspecified)			92%	-1.1%	Activity [32]: 8%; Activity ([12]; filed as agonist): 91%
COc1ccc(CCCC(C)(C)C)c(N2CC(COc3cccc(C(CC(=O)O)C4CC4)c3)C2)c1 (stereo unspecified)	250 nM				
